In patent US8337835B2, “Use of an endogenous ligand for peroxisome proliferator activated receptor alpha to treat liver disorders” (priority 2009, dated 2012):

How the values were obtained:
[1] = system: PPARα-dependent genes (ACO and CPT-1) after CEPT1 knockdown; experiment: Rescue of ACO and CPT-1 expression in Hepa 1-6 cells treated with CEPT1 siRNA; assay type: cell-based, mouse; settings: 72 h CEPT1 siRNA, then 50 μM for 24 h
Description: The C57BL/6 mouse hepatoma cell line Hepa 1-6 (ATCC, CRL-1830) was expanded in DMEM with 10% fetal bovine serum. For experiments, cells were cultured to 50-60% confluence, washed twice with PBS, and the medium was changed to serum-free DMEM supplemented with the various types and concentrations of phosphatidylcholine (sonicated to homogeneity in PBS/1% ethanol/4% fatty acid-free BSA), Wy14,643 (dissolved in 80% PBS/20% DMSO), or vehicle-only solutions. 24 h later, cells were washed, RNA prepared, and ACO and CPT-1 expression levels were determined by quantitative RT-PCR (see FIG. 6). For siRNA experiments, 50-60% confluent cells were treated with siRNAs or their scrambled controls (all diluted in PBS) for 72 h. […]
(§1) Stealth™ siRNA oligonucleotides were used to inhibit the gene expression of mouse ChPT1 ([…]) (SEQ ID NO: 1) and CEPT1 ([…]) (SEQ ID NO: 2) were from Invitrogen (Carlsbad, Calif.). […] Expression of ACO and CPT-1 was also assessed 24 h after addition of 50 μM 16:0/18:1-GPC in a subset of Hepa 1-6 cells previously treated with CEPT1 siRNA. mRNA levels are normalized to control L32 ribosomal mRNA. […] FIGS. 6F-H show the binding of various peptide motifs to the purified PPARα (FIG. 6F), PPARδ (FIG. 6G), and PPARγ (FIG. 6H) LBD in the presence of 5 μM of the corresponding PPAR agonist or 16:0/18:1-GPC as measured by AlphaScreen assays. […]

[2] = biological target: T1, PPARγ LBD (Homo sapiens, UniProt P37231); experiment: ALPHASCREEN binding assay, PPARγ ligand binding domain; settings: 5 μM
T1 construct: Identical experiments were performed using the PPARδ and PPARγ LBDs; 6xHis; made in house
T1 sequence (P37231 238-503 limits assumed): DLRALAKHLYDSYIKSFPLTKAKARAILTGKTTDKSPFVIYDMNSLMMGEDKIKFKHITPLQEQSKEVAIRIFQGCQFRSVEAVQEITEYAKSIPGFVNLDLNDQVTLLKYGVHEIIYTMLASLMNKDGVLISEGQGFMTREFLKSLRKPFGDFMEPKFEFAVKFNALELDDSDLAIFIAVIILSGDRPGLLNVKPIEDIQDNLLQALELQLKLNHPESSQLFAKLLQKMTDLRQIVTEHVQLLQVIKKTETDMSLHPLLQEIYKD
Description: Binding of 16:0/18:1-GPC and known agonists to the ligand binding domain (LBD) of PPARα in the presence of various peptide motifs was determined by ALPHASCREEN™ assay (Proc Natl Acad Sci USA 105, pp. 5034-5039, 2008). Experiments used 100 nM receptor LBD, purified as 6× His tag fusion proteins (Mol Cell 17, pp. 491-502, 2005), and 20 nM of N-terminal biotinylated CBP1 peptide or other coactivator peptides in the presence of 5 μg/ml donor and acceptor beads in 50 mM MOPS (pH 7.4), 100 mM NaCl, and 0.1 mg/ml BSA for 90 min at 25° C. Signals were generated in the absence or the presence of ligand. Identical experiments were performed using the PPARδ and PPARγ LBDs.
as §1

CCCCCCCC/C=C\CCCCCCCC(=O)O[C@H](COC(=O)CCCCCCCCCCCCCCC)COP(=O)([O-])OCC[N+](C)(C)C [16:0/18:1-GPC, 1-palmitoyl-2-oleoyl-sn-glycerol-3-phosphocholine]
rescue of decreased PPARα-dependent genes (ACO, CPT-1) after CEPT1 knockdown [1]: rescued
binding to PPARγ [2]: does not appear to bind
